Experimental data from PubChem BioAssay AID2765 (Broad Institute, 2010).
Active and inactive are the calls of the source.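 Rule for the calls: active = half-maximal concentration for the rise in caspase light signal at or below ten times the top tested dose; inconclusive = flat fit between 30% and 70% activity, or unreliable curve fit; inactive = the rest.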

System: MEF A1-2A-BIM cells, caspase 3/7 luminescence, 3 h
Test: inducers of caspase signal in A1-dependent MEFs – cell-based, luminescence, retest, A1 inhibitor project, dose response (AID 2765)

SMILES | EC50
CCOC(=O)c1sc(NC(=O)CSc2nc(C)cc(C)c2C#N)c(C#N)c1C | > 35 µM (inactive)
CC1(C)C[C@H](O)[C@]2(CO)[C@H](O)C[C@]3(C)C(=CCC4[C@@]5(C)CC[C@H](O)C(C)(C)C5CC[C@]43C)[C@@H]2C1 (stereo partly drawn) | > 35 µM (inactive)
O=C(CCCCCn1c(=S)[nH]c2ccsc2c1=O)NC1CCCCC1 | > 35 µM (inactive)
CCOC(=O)CNC(=O)N1CCCC(CNS(=O)(=O)Cc2ccccc2)C1 (stereo not drawn) | > 35 µM (inactive)
CCOCCOC(=O)c1[nH]c2c(c1C)C(=O)CC(c1cccs1)C2 (stereo not drawn) | > 35 µM (inactive)
O=C(Nc1ccc(Cl)cc1Cl)c1cccc(N2C(=O)C=CC2=O)c1 | > 35 µM (inactive)
C=C1C(O)[C@@H]2O[C@]3(CC[C@H](/C=C/C(C)[C@@H]4CC(C)=CC5(O[C@H](C[C@@](C)(O)CO)CCC5O)O4)O3)CC[C@H]2O[C@@H]1C(O)CC(C)[C@H]1OC2(CCCCO2)CCC1C (stereo partly drawn) | > 35 µM (inactive)
Cc1cc(=O)oc2cc(OCCC[n+]3ccccc3)ccc12 | > 35 µM (inactive)
COC(=O)[C@@]1(C)CC[C@]2(C)CC[C@@]3(C)C(=CC(=O)C4[C@@]5(C)CC[C@H](O)C(C)(C)[C@@H]5CC[C@]43C)[C@H]2C1 (stereo partly drawn) | > 35 µM (inactive)
CC(=O)OCCn1c2nc(=O)[nH]c(=O)c-2nc2cc(C)c(C)cc21 | > 35 µM (inactive)
CCc1ccc(Nc2n[n+](-c3ccccc3)c(/C=C/c3ccccc3)s2)cc1 | 10.9 µM
CN1CCN(CCNC(=O)Nc2ccc(Cl)cc2)CC1 | > 35 µM (inactive)
COC(=O)CCC(=O)c1ccc(OC)c(Cl)c1 | > 35 µM (inactive)
CCOC(=O)CCC(=O)Nc1ccc(S(=O)(=O)N2CCC(C)CC2)cc1 | > 35 µM (inactive)
Nc1cccc(Oc2cnccn2)c1 | > 35 µM (inactive)
Cc1ccc2c(c1)C(=O)C(=O)N2Cc1ccc(Cl)cc1 | > 35 µM (inactive)
COc1cc(-c2cc(-c3ccccc3)nc(SCC(=O)Nc3nccs3)c2C#N)cc(OC)c1OC | > 35 µM (inactive)
Cn1c2ccccc2c2cnn(CC(=O)NCCCN3CCN(c4ccccc4F)CC3)c(=O)c21 | > 35 µM (inactive)
NS(=O)(=O)c1ccc(-c2ccc(/C=C3\C(=O)Nc4ccccc43)o2)cc1 | > 35 µM (inactive)
CC(C)[C@H]1CN=C2N(CCNC(=O)CCC3CCCCC3)[C@H](Cc3ccc(O)cc3)CN21 | > 35 µM (inactive)
Cc1cc(Sc2ncnc(N)c2[N+](=O)[O-])ncn1 | > 35 µM (inactive)

SMILES | EC50
CCOC(=O)COc1ccccc1/C=C\[N+](=O)[O-] | 5.85 µM
COc1ccc(NC(=O)c2cccc3c2C(=O)c2ccc(-c4ccc(F)cc4OCc4ccccc4)cc2S3(=O)=O)cc1 | > 35 µM (inactive)
CCN(CC)CCSc1nnc2c3ccccc3n(Cc3ccccc3)c2n1 | > 35 µM (inactive)
CCc1nnc(NC(=O)CSc2nc(-c3ccccc3)cc(-c3ccc(F)cc3)c2C#N)s1 | 24.2 µM
O=C1C(Cc2ccccc2)SC(=Nc2ccccc2)N1c1ccccc1 (stereo not drawn) | > 35 µM (inactive)
CC1=CC(=O)C(C(C)C)=C/C1=N/OS(=O)(=O)c1ccccc1 | 9.28 µM
CCOCCCNC(=O)c1ccc2c(c1)N=C(CC)c1cc(Br)ccc1S2 | > 35 µM (inactive)
Cc1ccc(OCC(O)CN2CCN(CCO)CC2)c(C)c1 (stereo not drawn) | > 35 µM (inactive)
CN(CCc1ccccc1)C(=O)c1cccc(NC(=O)Cc2cccc([N+](=O)[O-])c2)c1 | > 35 µM (inactive)
O=C(COc1ccccc1[N+](=O)[O-])Nc1ccc(NC(=O)c2cc3ccccc3o2)cc1 | 27.4 µM
COc1cc(/C=C2/C(=N)N3C=CSC3=NC2=O)ccc1OCCCOc1cc(C)ccc1C | 7.28 µM
O=C1C2C3C=CC(CO)(O3)C2C(=O)N1c1ccc(-c2ccccc2)cc1 (stereo not drawn) | > 35 µM (inactive)
O=C(c1cc(C2CC2)nn1-c1ccccc1)N1CCN(S(=O)(=O)c2cccc(F)c2)CC1 | > 35 µM (inactive)
COc1oc(-c2ccccc2)nc1C(F)(F)F | > 35 µM (inactive)
COC(=O)[C@]1(C)CCC[C@@]2(C)C3CC[C@@]4(C)C[C@]3(CCC21)CC4=NO (stereo partly drawn) | > 35 µM (inactive)
O=C(Nc1ccccc1)N(Cc1ccc(Cl)cc1)CC(O)C(F)(F)F (stereo not drawn) | > 35 µM (inactive)
CCCCc1ccc(-c2csc(/C(C#N)=C\c3ccc(C)o3)n2)cc1 | > 35 µM (inactive)
COc1c(Br)cc([N+](=O)[O-])c(OC)c1C(=O)NC(=O)Nc1nc(C)cc(C)n1 | > 35 µM (inactive)
O=C(CS(=O)(=O)c1ccccc1)N(CCCN1CCOCC1)c1nc2c(F)cccc2s1 | > 35 µM (inactive)
Cc1ccc(C(C(=O)NCc2ccco2)N(C(=O)Cc2cccs2)c2cccnc2)cc1 (stereo not drawn) | > 35 µM (inactive)

Now from value to compound:

EC50 | SMILES
8.46 µM | CC(C)(C)C1C/C(=C/c2ccccn2)C(=O)/C(=C/c2ccccn2)C1 (stereo not drawn)
> 35 µM (inactive) | CCC(Sc1ncccc1Nc1ccccn1)C(=O)O (stereo not drawn)
> 35 µM (inactive) | O=C(COc1ccc(Cl)cc1)NCc1nnc(SCC(=O)Nc2ccccc2F)o1
> 35 µM (inactive) | Cc1ccc(N=C2C(=O)Nc3ccc(C)c(Br)c32)cc1
> 35 µM (inactive) | CCc1cccc(CC)c1NC(=O)C1CSC2(C)CCC(=O)N12 (stereo not drawn)
> 35 µM (inactive) | COc1ccc(NC(=O)CN(C)C(=O)/C=C/c2ccc(S(=O)(=O)N3CCCCCC3)cc2)cc1
> 35 µM (inactive) | COCCCN(C(=O)Nc1ccccc1)C(C)c1ccncc1 (stereo not drawn)
> 35 µM (inactive) | COc1ccc(NC(=O)CN2CCN(CC(=O)Nc3ccccc3Cl)CC2)cc1Cl
> 35 µM (inactive) | COC(=O)C(Cc1ccccc1)OS(N)(=O)=O (stereo not drawn)
> 35 µM (inactive) | O=C(CSc1nnc(-c2ccncc2)o1)Nc1ccc(F)c(F)c1
> 35 µM (inactive) | COc1ccc(NC(=O)CN2CCC(NC(=O)c3ccc(OC)cc3)CC2)cc1
> 35 µM (inactive) | O=C(OCn1ncc(Cl)c(Cl)c1=O)c1cccc(C(F)(F)F)c1
> 35 µM (inactive) | CC(C)(C)c1ccc2c(c1)OC(C(=O)N/N=C\c1ccc[nH]1)CO2 (stereo not drawn)
> 35 µM (inactive) | Cc1ccc(OCCC(=O)Nc2ccccc2C(=O)NC2CC2)cc1
> 35 µM (inactive) | Cc1noc(C)c1COc1ccc(C(=O)OC(C)C(=O)Nc2ccc(N3CCOCC3)cc2)cc1 (stereo not drawn)
> 35 µM (inactive) | COC(=O)c1ccc(Cl)cc1NC(=O)/C=C/c1ccc(C)o1
> 35 µM (inactive) | COc1ccc(S(=O)(=O)Nc2ccc(NC(C)=O)cc2)cc1
> 35 µM (inactive) | COc1ccc(C(=O)NNC(=O)CSc2nc3c(c(=O)n(C)c(=O)n3C)n2C)cc1
16 µM | CCOc1cc(C(=O)CSc2nnc(CNc3ccc(Cl)cc3)o2)ccc1NC(=O)CC
> 35 µM (inactive) | COc1ccc(CNC(=O)Cc2cccs2)cc1OC
> 35 µM (inactive) | O=C(/C=C/c1ccc(Br)cc1)c1ccc(NC2=NCCCS2)cc1
> 35 µM (inactive) | Cc1ccc(N=C2C(=O)Nc3ccccc32)cc1
> 35 µM (inactive) | O=C(NCc1ccco1)/C(=C/c1ccc([N+](=O)[O-])cc1)NC(=O)c1ccco1
> 35 µM (inactive) | C[C@H](CO)N1C[C@H](C)[C@H](CN(C)Cc2ccc(-c3ccccc3)cc2)Oc2ccc(NS(=O)(=O)c3ccccc3)cc2CC1=O
> 35 µM (inactive) | Cc1cc(NC(=O)c2ccc3c(c2)C(=O)N(Cc2ccccc2)C3=O)no1
> 35 µM (inactive) | O=C1c2ccsc2SCCN1Cc1cccc(F)c1

EC50 | SMILES
> 35 µM (inactive) | CCOc1ccc(N2CC(C(=O)NNC(=O)c3ccc(Br)cc3)CC2=O)cc1 (stereo not drawn)
> 35 µM (inactive) | CC(=O)Nc1ccc(S(=O)(=O)N2CCCC3CCCCC32)cc1 (stereo not drawn)
> 35 µM (inactive) | COc1ccccc1NS(=O)(=O)c1ccc(C)c(C(=O)N2CCN(c3ccc(O)cc3)CC2)c1
> 35 µM (inactive) | Cc1cccc(Nc2nc(N)c([N+](=O)[O-])c(N3CCCC(C)C3)n2)c1 (stereo not drawn)
13 µM | CCn1c(SCC(=O)Nc2ccc(C(C)=O)cc2)nc2c([nH]c3ccccc32)c1=O
> 35 µM (inactive) | O=C(Nc1ccc2oc(-c3ccccc3)nc2c1)c1ccccc1F
> 35 µM (inactive) | Cc1cc(N2C(=O)C(O)=C(C(=O)c3cc4ccccc4o3)C2c2ccc(Br)cc2)no1 (stereo not drawn)
5.84 µM | Cc1ccc(C)c(NC(=S)NC(NC(=O)Cc2cccc3ccccc23)C(Cl)(Cl)Cl)c1 (stereo not drawn)
> 35 µM (inactive) | COC(=O)C1=C(C(=O)OC)[C@@H]2N(C)c3ccc(OC)cc3[C@@]23C[C@@H](C(=O)OC)N(C(=O)c2ccco2)C3=N1
> 35 µM (inactive) | CC(C)CN(C(=O)C1CSC2(C)CCC(=O)N12)c1c(N)n(Cc2ccccc2)c(=O)[nH]c1=O (stereo not drawn)
> 35 µM (inactive) | CN(C)C(=O)[C@@H]1C[C@H]1[C@@H](NC(=O)OCc1ccccc1)c1ccccc1
> 35 µM (inactive) | Cc1ccc(NC(=O)CN(C)S(=O)(=O)c2cnc[nH]2)c(C)c1
> 35 µM (inactive) | Cc1cc(C)cc(N=Cc2c(O)c3ccccc3oc2=O)c1
> 35 µM (inactive) | CCOC(=O)c1oc2ccccc2c1NC(=O)CN1CCN(C)CC1
> 35 µM (inactive) | CCn1c(CNc2ccc(F)cc2)nnc1SCC(=O)Nc1ccccc1OC
> 35 µM (inactive) | O=C(Cn1[nH]c(=O)c2ccccc2c1=O)OCC(=O)N1CCc2ccccc2C1
> 35 µM (inactive) | Cc1c(Cl)cccc1NC(=O)[C@@]1(CC(=O)O)CC(/C=C/c2ccccc2)=NO1
> 35 µM (inactive) | Fc1ccc(NC(=S)NCc2ccccc2Cl)cc1
> 35 µM (inactive) | Cc1ccc2[nH]c3c(c2c1)CCCC3NC(=O)CCl (stereo not drawn)
> 35 µM (inactive) | Cc1ccc(NC(=O)CCN2CCOCC2)cc1C
> 35 µM (inactive) | CCOC(=O)C(Cc1ccc(N)cc1)N1C(=O)c2ccccc2C1=O (stereo not drawn)
> 35 µM (inactive) | C#CC(=O)N(c1cc(OC)ccc1OC)C(C(=O)NC1CCCC1)c1cccs1 (stereo not drawn)
> 35 µM (inactive) | COc1cc(NC(=O)c2nn(C)c3c2CS(=O)(=O)c2ccccc2-3)cc(OC)c1
> 35 µM (inactive) | COc1ccc(NC(=O)c2oc3ccccc3c2NC(=O)C2CC2)cc1
> 35 µM (inactive) | O=C(Cc1ccccc1)N1CCc2[nH]nc(-c3ccccc3)c2C1
> 35 µM (inactive) | CC1CCCN(C(=O)CN2C(=O)C(C)Oc3ccccc32)C1 (stereo not drawn)
